# Columns and labels:
# Adenosine receptor A1 [1] = target: T1, Adenosine receptor A1 (Homo sapiens, UniProt P30542); assay: Displacement of [3H]DPCPX from human adenosine A1 receptor expressed in CHO cells; format: cell-based
# T1 sequence (P30542 whole entry): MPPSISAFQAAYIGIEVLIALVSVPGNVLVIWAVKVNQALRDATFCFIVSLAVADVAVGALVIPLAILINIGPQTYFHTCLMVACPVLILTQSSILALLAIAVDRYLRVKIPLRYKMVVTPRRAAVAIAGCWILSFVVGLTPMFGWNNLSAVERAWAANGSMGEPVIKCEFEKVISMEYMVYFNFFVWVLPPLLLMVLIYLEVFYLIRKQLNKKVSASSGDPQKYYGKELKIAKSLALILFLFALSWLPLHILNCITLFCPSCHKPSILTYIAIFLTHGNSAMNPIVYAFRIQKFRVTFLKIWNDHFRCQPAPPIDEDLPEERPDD
# Adenosine receptor A2a [2] = target: T2, Adenosine receptor A2a (Homo sapiens, UniProt P29274); assay: Inhibition of [3H]NECA binding to human adenosine A2A receptor at 10 uM
# T2 sequence (P29274 whole entry): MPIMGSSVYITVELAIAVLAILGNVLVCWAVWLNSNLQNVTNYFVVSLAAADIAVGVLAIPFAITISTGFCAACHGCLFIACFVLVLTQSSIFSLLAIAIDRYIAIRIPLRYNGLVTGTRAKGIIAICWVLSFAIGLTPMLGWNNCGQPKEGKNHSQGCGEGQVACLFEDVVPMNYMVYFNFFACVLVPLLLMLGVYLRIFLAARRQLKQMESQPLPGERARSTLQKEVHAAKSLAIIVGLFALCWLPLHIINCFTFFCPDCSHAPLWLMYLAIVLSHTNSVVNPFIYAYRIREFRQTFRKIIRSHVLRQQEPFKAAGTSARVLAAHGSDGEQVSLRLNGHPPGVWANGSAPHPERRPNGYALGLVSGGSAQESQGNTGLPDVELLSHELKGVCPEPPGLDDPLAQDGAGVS
# Adenosine receptor A2a [3] = target: T2, Adenosine receptor A2a; assay: Displacement of [3H]NECA from human adenosine A2A receptor expressed in CHO cells; format: cell-based
# [4] = target: T3, Adenosine receptor A1 (Homo sapiens) (UniProt P30542); assay: Inhibition of [3H]DPCPX binding to human adenosine A1 receptor at 10 uM
# T3 sequence (whole entry): T1 sequence (P30542 whole entry)
# Adenosine receptor A1 [5] = target: T4, Adenosine receptor A1 (Bos taurus, UniProt P28190); assay: Displacement of [3H]DPCPX from adenosine A1 receptor in bovine brain membranes; format: cell membranes
# T4 sequence (P28190 whole entry): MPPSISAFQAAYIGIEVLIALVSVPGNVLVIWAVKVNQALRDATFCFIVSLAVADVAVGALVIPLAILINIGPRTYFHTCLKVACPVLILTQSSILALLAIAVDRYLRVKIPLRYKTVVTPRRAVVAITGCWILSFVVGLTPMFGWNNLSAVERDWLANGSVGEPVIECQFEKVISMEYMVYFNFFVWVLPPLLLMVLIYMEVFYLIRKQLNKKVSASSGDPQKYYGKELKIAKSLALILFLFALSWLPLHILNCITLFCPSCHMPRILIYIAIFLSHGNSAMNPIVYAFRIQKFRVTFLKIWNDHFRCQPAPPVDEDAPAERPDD
# Adenosine receptor A3 [6] = target: T5, Adenosine receptor A3 (Homo sapiens, UniProt P0DMS8); assay: Displacement of [125I]AB-MECA from human adenosine A3 receptor expressed in CHO cells; format: cell-based
# T5 sequence (P0DMS8 whole entry): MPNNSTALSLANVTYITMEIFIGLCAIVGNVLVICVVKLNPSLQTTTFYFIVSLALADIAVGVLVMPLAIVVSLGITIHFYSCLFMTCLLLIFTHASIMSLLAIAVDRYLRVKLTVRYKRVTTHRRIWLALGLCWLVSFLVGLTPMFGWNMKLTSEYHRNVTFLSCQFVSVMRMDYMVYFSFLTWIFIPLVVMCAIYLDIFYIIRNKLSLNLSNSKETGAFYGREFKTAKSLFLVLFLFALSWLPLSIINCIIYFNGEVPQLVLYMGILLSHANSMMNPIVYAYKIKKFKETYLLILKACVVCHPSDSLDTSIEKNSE
# [7] = test system: Adenosine receptor A2a (Bos taurus); assay: Inhibition of [3H]CGS 21680 binding to adenosine A2A receptor in bovine striatal membranes at 10 uM; details: Striatum, Membrane
# [8] = target: T6, Adenosine receptor A1 (Bos taurus) (UniProt P28190); assay: Inhibition of [3H]DPCPX binding to adenosine A1 receptor in bovine brain membranes at 10 uM; format: cell membranes
# T6 sequence (whole entry): T4 sequence (P28190 whole entry)
# Adenosine receptor A2b = target: T7, Adenosine receptor A2b (Homo sapiens, UniProt P29275); assay: Inhibition of NECA-stimulated cAMP level in CHO cells transfected with human adenosine A2B receptor; format: functional, cell-based
# T7 sequence (P29275 whole entry): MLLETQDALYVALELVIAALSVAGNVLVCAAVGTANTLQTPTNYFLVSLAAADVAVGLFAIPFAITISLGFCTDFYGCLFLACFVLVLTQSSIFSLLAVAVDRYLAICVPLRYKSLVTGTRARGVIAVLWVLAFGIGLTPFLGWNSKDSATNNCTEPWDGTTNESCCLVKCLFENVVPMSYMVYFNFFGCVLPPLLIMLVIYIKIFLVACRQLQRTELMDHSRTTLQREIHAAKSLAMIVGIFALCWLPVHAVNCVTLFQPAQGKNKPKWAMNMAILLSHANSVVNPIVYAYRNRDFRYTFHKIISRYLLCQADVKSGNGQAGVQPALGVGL
# [9] = target: T8, Adenosine receptor A2b (Homo sapiens) (UniProt P29275); assay: Inhibition of NECA-stimulated cAMP level in CHO cells transfected with human adenosine A2B receptor at 1 uM; format: functional, cell-based
# T8 sequence (whole entry): T7 sequence (P29275 whole entry)
# Adenosine receptor A3 [10] = target: T5, Adenosine receptor A3; assay: Antagonist activity against Cl-IB-MECA inhibited cAMP level in CHO cells transfected with human A3 receptor; format: functional, cell-based
# [11] = target: T9, Adenosine receptor A3 (Homo sapiens) (UniProt P0DMS8); assay: Inhibition of [125I]AB-MECA binding to human adenosine A3 receptor at 1 uM
# T9 sequence (whole entry): T5 sequence (P0DMS8 whole entry)
# [12] = target: Adenosine receptor A2a (Bos taurus); assay: Displacement of [3H]CGS 21680 from adenosine A2A receptor in bovine striatal membranes
Compound,inhibition (Adenosine receptor A2a [2]) [%],inhibition [4] [%],Ki (Adenosine receptor A1 [5]) [nM],Ki (Adenosine receptor A3 [6]) [nM],inhibition [7] [%],other results
CC(=O)Nc1nc2ccccc2n2c(=O)n(-c3ccccc3)nc12,22,,,,,Ki (Adenosine receptor A1 [1]): 2000 nM
Nc1cccc2c1nc(NC(=O)C(c1ccccc1)c1ccccc1)c1nn(-c3ccccc3)c(=O)n12,,2.5,1.6,8.65,12,Ki (Adenosine receptor A2a [3]): 627 nM
COc1ccc(-n2nc3c(NC(=O)c4ccccc4)nc4c([N+](=O)[O-])cccc4n3c2=O)cc1,,,,217,15,inhibition [8]: 35%
Nc1cccc2c1nc(N(C(=O)c1ccccc1)C(=O)c1ccccc1)c1nn(-c3ccccc3)c(=O)n12,,,79,1240,36,
COc1ccc(-n2nc3c(NC(=O)C(c4ccccc4)c4ccccc4)nc4ccccc4n3c2=O)cc1,,25,7.2,44,,IC50 (Adenosine receptor A2b): > 1000 nM; inhibition [9]: 37%; IC50 (Adenosine receptor A3 [10]): 215 nM
O=C(Nc1nc2ccccc2n2c(=O)n(-c3ccccc3)nc12)c1ccccc1,,,,,,Ki (Adenosine receptor A2a [3]): 88.2 nM; Ki (Adenosine receptor A1 [1]): 87.8 nM
COc1ccc(-n2nc3c(NC(C)=O)nc4c([N+](=O)[O-])cccc4n3c2=O)cc1,,,,,7,inhibition [11]: 36%; inhibition [8]: 0%
O=C(c1ccccc1)N(C(=O)c1ccccc1)c1nc2c([N+](=O)[O-])cccc2n2c(=O)n(-c3ccccc3)nc12,,,,,0,inhibition [11]: 27%; inhibition [8]: 39%
O=C(Nc1nc2ccccc2n2c(=O)n(-c3ccc([N+](=O)[O-])cc3)nc12)C(c1ccccc1)c1ccccc1,,,,,0,inhibition [11]: 13%; inhibition [8]: 30%
CC(=O)Nc1nc2c(N)cccc2n2c(=O)n(-c3ccccc3)nc12,,32,1,48,,
COc1ccc(-n2nc3c(NC(=O)C(c4ccccc4)c4ccccc4)nc4c([N+](=O)[O-])cccc4n3c2=O)cc1,2,11,260,,0,
COc1ccc(-n2nc3c(N(C(=O)c4ccccc4)C(=O)c4ccccc4)nc4c([N+](=O)[O-])cccc4n3c2=O)cc1,,,,343,,inhibition [8]: 20%
COc1ccc(-n2nc3c(NC(=O)C(c4ccccc4)c4ccccc4)nc4c(N)cccc4n3c2=O)cc1,31,0,77.5,2.58,0,
O=C(Nc1nc2ccccc2n2c(=O)n(-c3ccc([N+](=O)[O-])cc3)nc12)c1ccccc1,,,,100,26,inhibition [8]: 55%
COc1ccc(-n2nc3c(NC(C)=O)nc4ccccc4n3c2=O)cc1,6,34,245,35.7,,
COc1ccc(-n2nc3c(NC(=O)c4ccccc4)nc4c(N)cccc4n3c2=O)cc1,24,45,393,1,,IC50 (Adenosine receptor A2b): > 1000 nM; inhibition [9]: 17%; IC50 (Adenosine receptor A3 [10]): 8.6 nM
O=C(Nc1nc2c([N+](=O)[O-])cccc2n2c(=O)n(-c3ccccc3)nc12)C(c1ccccc1)c1ccccc1,49,12,3.9,14.9,29.5,
Nc1cccc2c1nc(NC(=O)c1ccccc1)c1nn(-c3ccccc3)c(=O)n12,,,42,22,27.8,Ki (Adenosine receptor A2a [3]): 4850 nM; Ki (Adenosine receptor A1 [1]): 98 nM
O=C(Nc1nc2c([N+](=O)[O-])cccc2n2c(=O)n(-c3ccccc3)nc12)c1ccccc1,25,15,,22,0,inhibition [8]: 32%
O=C(c1ccccc1)N(C(=O)c1ccccc1)c1nc2ccccc2n2c(=O)n(-c3ccccc3)nc12,43,1,30,5.2,,IC50 (Adenosine receptor A2b): > 1000 nM; inhibition [9]: 15%; IC50 (Adenosine receptor A3 [10]): 28.3 nM
COc1ccc(-n2nc3c(NC(C)=O)nc4c(N)cccc4n3c2=O)cc1,,,363,5.5,,Ki (Adenosine receptor A2a [3]): 1100 nM; Ki (Adenosine receptor A1 [1]): 2700 nM
COc1ccc(-n2nc3c(NC(=O)c4ccccc4)nc4ccccc4n3c2=O)cc1,,37,1010,2.9,23,Ki (Adenosine receptor A2a [3]): 3580 nM
COc1ccc(-n2nc3c(N(C(=O)c4ccccc4)C(=O)c4ccccc4)nc4ccccc4n3c2=O)cc1,26,2,175,3.29,,IC50 (Adenosine receptor A2b): > 1000 nM; inhibition [9]: 13%; IC50 (Adenosine receptor A3 [10]): 31.8 nM
CC(=O)Nc1nc2c([N+](=O)[O-])cccc2n2c(=O)n(-c3ccccc3)nc12,,,6,,36,inhibition [11]: 18%
O=C(Nc1nc2ccccc2n2c(=O)n(-c3ccccc3)nc12)C(c1ccccc1)c1ccccc1,58,,10.2,0.81,,Ki (Adenosine receptor A1 [1]): 18.8 nM; Ki [12]: 1160 nM
